One may read the melting point as the temperature of the solid-liquid transition.

Some results are limits rather than exact numbers.

Take `CN(C)Cc1ccc2cc(NC(=O)c3ccc(-c4ccc(Cl)cc4)cc3)ccc2c1`: the melting point fell in the range of 230 to 231 °C.

`COc1c(C)c(C(=O)c2ccc3nc(C)[nH]c(=O)c3c2)n2ccccc12` displayed a melting point of 290 °C.

Compound `COc1cnccc1C#N` yielded a melting point of 66 to 67 °C.

In turn, `CC(C#CC1CC(Oc2ccc(OC(F)(F)F)cc2)C1)N(O)C(N)=O` (single isomer, unassigned; (+)) yielded a melting point of 103 to 105 °C.

With `O=C(c1ccccc1)c1ccc(SCC(O)CO)cc1` (stereo not given), the melting point was 86 to 88 °C.

Regarding `CCCCCCCCCCCOC(=O)NCCC`, the melting point was 45 to 45.5 °C.

`O=C1Nc2ccc(Cl)cc2C1(O)c1ccccc1OC(F)(F)F` (stereo not given) had a melting point of 214 °C.

Turning to `CC(=O)NCC1CC1c1cccn2nc(C)nc12` (stereo not given), the melting point fell in the range of 116 to 118 °C.

Turning to `COc1ccc2c(c1)Sc1ccccc1CN2C=O`, the melting point lay within 98 to 100 °C.

On to `O=C(NCCN(Cc1ccccc1)Cc1ccccc1)C1CCN(c2c(Cl)cncc2Cl)CC1`, for which the melting point lay in the range of 147 to 149 °C.

Turning to `COC(=O)NC1CC(=O)N(c2cc(Cl)cc(Cl)c2)C1=O` (stereo not given), the melting point lay in the range of 136 to 138 °C.

The compound `CCNC(=O)n1nc(Oc2ccc([N+](=O)[O-])c(C)c2)cc1C` showed a melting point of 67 to 69 °C.

With `CCOC(=O)Cc1c(C(=O)O)c2cc(Oc3ccc(C(F)(F)F)cn3)ccc2n1-c1ccc(OC(C)C)cc1`, the melting point amounted to 202 °C.

As for `O=C(CCCCCBr)c1c[nH]c2ccccc12`, the melting point lay within 150 to 151 °C.

Turning to `CS(=O)c1ccc(-c2coc3ccc(-c4nnc(SCc5cccc(F)c5)o4)cc23)cc1` (stereo not given), the melting point fell in the range of 135 to 136 °C.

The compound `CC(=O)c1nc2ccc(OC(C)C)cc2cc1OCc1ccccc1` returned a melting point of 102 to 104 °C.

Regarding `COc1ccc(-c2cc(-c3ccc(F)cc3)ccc2C(=O)N2CCOCC2)cc1OC`, the melting point stood at 153 °C.

Consider `CC(C)(O)c1ccc(-c2nn(Cc3ccccc3)c3ccccc23)o1`, for which the melting point is 124 to 127 °C.

`NC(=O)N(c1ccc(C(F)(F)F)cc1)c1nc(Cl)cc(Cl)n1`: the melting point lay within 99 to 101 °C.

In the case of `C[C@@]1(C(=O)O)CSC(Cc2cc(F)cc(F)c2)=N1`, the melting point was 120 to 122 °C.

In the case of `CCOC(=O)c1cccc(NC(=O)c2sc(NC(=N)N)nc2C)c1`, the melting point fell in the range of 149 to 152 °C.

`Cc1ccc(C2C(=O)NC(=O)NC2=O)cc1` displayed a melting point of 271 °C.

`CCCn1nc2c(N)nc3ccccc3c2c1CC(C)(C)C(N)=O`: the melting point fell in the range of 224 to 225 °C.

As to `NS(=O)(=O)c1ccc(CCCCCO)s1`, the melting point is 65 to 67 °C.

On to `CCN(CC)C(=O)c1ccc(Cl)c(Cl)c1Br`, for which the melting point was 196 °C.

Turning to `COC(=O)c1ccc(CC(=O)c2cc(OC)c3c(c2)C(C)(C)CCC3(C)C)cc1`, the melting point is 143 to 144 °C.

`Nc1c(C(=O)c2cccc(C(F)(F)F)c2)[nH]c2cc(Cl)ccc12`: the melting point was 84 to 87 °C.

In turn, `O=C1CC(C(=O)O)NN1` (stereo not given) gave a melting point of 188 to 190 °C.

`CC1(C)CSCC(C)(C)c2[nH]c(-c3ccccc3)nc21` registered a melting point of 223 to 224 °C.

Consider `N#Cc1ccc(N2CCC(O)CC2)c2ccccc12`, for which the melting point lay in the range of 126 to 127 °C.

Compound `O=C(Cc1ccc(Cl)c(Cl)c1)N1CCC2(CC1CN1CCCC1)SCCS2` (stereo not given) had a melting point of 119 to 120 °C.

The compound `O=C(O)Cc1c(C(=O)c2cc3ccccc3cn2)[nH]c2ccc(Cl)cc12` yielded a melting point of 239 to 240 °C.

`CN(c1ccccc1)S(=O)(=O)c1ccc(NC(=O)C(C)(O)C(F)(F)F)cc1` (stereo not given) had a melting point of 147 to 149 °C.

Turning to `O=C(NCCCCCCc1ccc(-c2ccc(=O)[nH]n2)cc1)c1cccnc1`, the melting point is 178 to 179 °C.

Take `CN1CCC(c2c[nH]c3ccc(CCS(N)(=O)=O)cc23)CC1`: the melting point is > 95 °C.

In turn, `CCc1noc(C)c1-c1[nH]c2ccccc2c1C(=O)CCN(C)C` registered a melting point of 146 to 148 °C.

The compound `Cn1nc(-c2nc(C#CCO)c(Cl)cc2F)c(Cl)c1OC(F)F` came in with a melting point of 92 to 94 °C.

The compound `COc1cc(C(=O)O)ccc1Cc1cn(C(C)C)c2ccc(CCCC(=O)N(C)C)cc12` showed a melting point of 168 to 170 °C.

`COc1ccc(CS(=O)(=O)c2cc3ccccc3oc2=O)cc1` came in with a melting point of 194 to 195 °C.

Regarding `O=Cc1cc(Oc2c(Cl)cc(C(F)(F)F)cc2Cl)ccc1[N+](=O)[O-]`, the melting point is 115 °C.

With `Cc1cc2nc3[nH]c4ccc(Br)cc4c3nc2cc1C`, the melting point was 319 to 322 °C.

Consider `COc1cc2c(Cl)c(C#N)cnc2cc1OCC1CCN(C)CC1`, for which the melting point was 166 to 168 °C.

Turning to `O=C1c2cc3nnn(Cc4cccc(F)c4)c(=O)c3cc2OC2CCCN12` (stereo not given), the melting point is 183 to 185 °C.

`CCSC(c1ccc(Cl)cc1Cl)C(C(O)C(C)(C)CF)n1cncn1` (stereo not given): the melting point was 182 °C.

As for `CS(=O)(=O)c1ccc(-c2cnn(CC(F)(F)F)c(=O)c2C2=CCCCC2)cc1`, the melting point was in the range of 75 to 81 °C.

Regarding `COc1cc2c(cc1OC)CN(C)C2`, the melting point is 80 °C.

`CC(=O)OCC1OC(n2cc(C(Cl)=CI)c(=O)[nH]c2=O)C(OC(C)=O)C1OC(C)=O` (stereo not given) had a melting point of 85 to 87 °C.

Consider `CCOC(=O)Cc1ccc2c(c1)C(=O)c1cc(Cl)ccc1CS2`, for which the melting point is 68 to 71 °C.

`COC(=O)C1CNCCN1C(=O)c1cc(OC)c(OC)c(OC)c1` (stereo not given) had a melting point of 134 to 135 °C.

The compound `CCS(=O)(=O)N(CCCCC(N)=O)C1CC(C)(C)Oc2ccc(C)cc21` (stereo not given) returned a melting point of 127 to 129 °C.

Take `Clc1cc(Cl)cc(-c2cc[nH]n2)c1`: the melting point came to 156 °C.

On to `CCCCCCCCCCCC(=O)Oc1ccc2cc(C(=N)N)ccc2c1`, for which the melting point was 149 to 151 °C.

In turn, `O=c1[nH]c2ccccc2n2cc(-c3ccccc3)cc12` had a melting point of 301 to 303 °C.

Compound `CNC(=O)N1CCC(=C2c3ccc(Cl)cc3CCc3cccnc32)CC1` displayed a melting point of 194 to 196 °C.

In the case of `CCC(C(C)=CC(CNC(=O)c1nc[nH]n1)=NO)[N+](=O)[O-]` (stereo not given), the melting point was in the range of 131 to 136 °C.

Take `C#CCc1ccc2c(C)c(C(=O)O)c(=O)oc2c1`: the melting point came to 172 °C.

On to `CCOC(CCCN1CCC(NC(=O)c2ccccc2)CC1)OCC`, for which the melting point is 95 °C.

In turn, `Cc1cccc(-c2nc(-c3ccc(S(C)=O)cc3)sc2-c2ccnc(C)c2)c1` (stereo not given) came in with a melting point of 128 to 130 °C.

Compound `CCOC(=O)c1nc(NCC(c2ccccc2)c2ccccc2)c2ncn([C@@H]3O[C@H](CO)[C@H]4OC(C)(C)O[C@H]43)c2n1` had a melting point of 126 to 128 °C.

In the case of `Cc1ccc(C(c2cc(C(C)(C)C)cc(C(C)(C)C)c2O)N(C)C)cc1C` (stereo not given), the melting point is 82 to 85 °C.

On to `CCCc1ccc(S(=O)(=O)Nc2ccc(OC)nc2)cc1`, for which the melting point is 93 to 94 °C.

Compound `O=C(Nc1ccc(-n2nc(-c3ccoc3)cc2Cl)cc1)c1ccncc1F` had a melting point of 165 to 166 °C.

Consider `CC(C)=CCO[C@H]1NC(=O)[C@@H]1NC(=O)c1ccccc1`, for which the melting point came out at 92 °C.

`COCC(=O)NC(CC(=O)Nc1n[nH]c(=S)s1)c1ccccc1` (stereo not given) gave a melting point of 241 to 242 °C.

In turn, `O=C(NCc1ccc(Cl)cc1)c1cn(CCN2CCOCC2)c2ccc(C=CCO)cc2c1=O` yielded a melting point of 146 to 148 °C.
